From patent publication US12286453B2, “Methods of sequencing using nucleotides with 3′ acetal blocking group” (ILLUMINA CAMBRIDGE LIMITED, priority 2020, dated 2025)

Experiment: Solution cleavage efficiency of palladium reagent formulations (HPLC kinetics)
Assay type: physicochemical
Details: 1 mM Pd species, 0.1 mM substrate, RT; 3 or 3.5 equivalents of THP vs 10 equivalents for [(Allyl)PdCl]2
Experimental: The cleavage efficiency was determined by measuring the relative rate of cleavage of a 3′-AOM-nucleotide substrate. Briefly, to a 0.1 mM solution of 3′-AOM-nucleotide substrate in 100 mM buffer was added a stock solution of a palladium reagent to a final concentration of 1 mM in Pd species. The solution was incubated at RT and the reaction kinetic was monitored by taking aliquots from the reaction at set time points, quenching them with a 1:1 solution of EDTA/H2O2 (0.1:0.1 M) and analyzing them by HPLC for the formation of 3′-OH nucleotide and the disappearance of the 3′-AOM nucleotide substrate.

[Cl-].[Cl-].[Cl][Pd][Cl].[Na+].[Na+] [Na2PdCl4]
cleavage efficiency (relative rate of cleavage): comparable to that of [(Allyl)PdCl]2
